{"source": "patent US12252478B2", "key": {"[1]": {"experiment": "Intrinsic dissolution rate (VanKel instrument, Cary 100 photometer)", "assay_type": "physicochemical", "protocol": "As measured on a VanKel instrument using a Cary 100 photometer, the intrinsic dissolution rate of Form A was determined in pH 4.5, pH 6.8 and 0.1 N HCl medium as follows:\nAs measured on a VanKel instrument using a Cary 100 photometer, the intrinsic dissolution rate of Form A was determined in pH 3.5, pH 4.5 and 0.1 N HCl medium as follows: […]"}, "[2]": {"experiment": "Solubility as a function of pH", "assay_type": "physicochemical", "conditions": "above pH 3"}, "[3]": {"experiment": "Hygroscopicity (water uptake)", "assay_type": "physicochemical"}, "[4]": {"experiment": "Thermodynamic stability of Forms A and B: heating and cooling cycles, transition temperatures"}, "[5]": {"experiment": "Equilibration in water depending on pH / form conversion", "assay_type": "physicochemical", "excerpt": "Forms A and B are enantiotropically related. […] Form B spontaneously transforms to Form A at ambient conditions. Form A can be converted to Modification HA, or Form HA, when equilibrated in water at pH 1."}, "[6]": {"conditions": "heating/cooling rate 0.5° C./min"}, "[7]": {"conditions": "heating/cooling rate 10° C./min"}, "[8]": {"conditions": "heating/cooling rate 20° C./min"}, "[9]": {"conditions": "heating/cooling rate 40° C./min"}}, "note": "“And” between values parts separate entries of the source, which are not always exact repeats. Equal values may be shown once.", "data": [{"smiles": "O=C(Nc1ccc(OC(F)(F)Cl)cc1)c1cnc(N2CC[C@@H](O)C2)c(-c2ccn[nH]2)c1", "note": "[Free Base form A]", "values": [{"measurement": "Intrinsic DR value", "setting": "[1]; Acetate buffer pH 4.5", "value": "n.a (does not dissolve)"}, {"measurement": "Intrinsic DR value", "setting": "[1]; HCL 0.1N", "value": "1.8 mg/min/cm2 and 1.9 mg/min/cm2"}, {"measurement": "Intrinsic DR value", "setting": "[1]; pH = 6.8", "value": "n.a (does not dissolve)"}, {"measurement": "solubility", "setting": "[2]", "value": "rather low"}, {"measurement": "water uptake", "setting": "[3]; 25° C. up to 92% relative humidity", "value": "less than 0.1%"}]}, {"smiles": "Cl.O=C(Nc1ccc(OC(F)(F)Cl)cc1)c1cnc(N2CC[C@@H](O)C2)c(-c2ccn[nH]2)c1", "note": "[crystal form B of the hydrochloride salt]", "values": [{"measurement": "form stability at ambient conditions", "setting": "[4]; ambient conditions", "value": "spontaneously transforms back into Form A"}, {"measurement": "transition B → A", "setting": "[4]; [6]", "value": 60.5, "unit": "°C"}, {"measurement": "transition B → A", "setting": "[4]; heating/cooling rate 1° C./min", "value": 53.8, "unit": "°C"}, {"measurement": "transition B → A", "setting": "[4]; heating/cooling rate 5° C./min", "value": 38.5, "unit": "°C"}, {"measurement": "transition B → A", "setting": "[4]; [7]", "value": 37.5, "unit": "°C"}, {"measurement": "transition B → A", "setting": "[4]; [8]", "value": 34.7, "unit": "°C"}, {"measurement": "transition B → A", "setting": "[4]; [9]", "value": 32.2, "unit": "°C"}, {"measurement": "decomposition observed", "setting": "[4]; upon heating", "value": "above 240 °C"}]}, {"smiles": "Cl.O=C(Nc1ccc(OC(F)(F)Cl)cc1)c1cnc(N2CC[C@@H](O)C2)c(-c2ccn[nH]2)c1", "note": "[form A of HCl salt]", "values": [{"measurement": "transition A → B", "setting": "[4]; [6]", "value": 95.1, "unit": "°C"}, {"measurement": "transition A → B", "setting": "[4]; heating/cooling rate 1° C./min", "value": 96.5, "unit": "°C"}, {"measurement": "transition A → B", "setting": "[4]; heating/cooling rate 5° C./min", "value": 100.3, "unit": "°C"}, {"measurement": "transition A → B", "setting": "[4]; [7]", "value": 102.1, "unit": "°C"}, {"measurement": "transition A → B", "setting": "[4]; [8]", "value": 104.8, "unit": "°C"}, {"measurement": "transition A → B", "setting": "[4]; [9]", "value": 103.7, "unit": "°C"}, {"measurement": "Intrinsic DR value", "setting": "[1]; Acetate buffer pH 4.5", "value": 0.01, "unit": "mg/min/cm2"}, {"measurement": "Intrinsic DR value", "setting": "[1]; Citrate buffer (pH 3.5)", "value": 0.02, "unit": "mg/min/cm2"}, {"measurement": "Intrinsic DR value", "setting": "[1]; HCL 0.01N (pH 2)", "value": 2.25, "unit": "mg/min/cm2"}, {"measurement": "Intrinsic DR value", "setting": "[1]; HCL 0.1N (pH 1)", "value": 0.16, "unit": "mg/min/cm2"}, {"measurement": "behaviour when equilibrated in water", "setting": "[5]; pH 1", "value": "converting into the trihydrate HA"}, {"measurement": "behaviour when equilibrated in water", "setting": "[5]; pH>3.5", "value": "prone to disproportionate"}, {"measurement": "solubility", "setting": "[2]", "value": "rather low"}, {"measurement": "water uptake", "setting": "[3]; 25° C. up to 95% relative humidity", "value": "less than 0.4%"}]}]}
